This note sets out measurements from patent publication US20030220280A1, “Schwann cell bridge implants and phosphodiesterase inhibitors to stimulate CNS nerve regeneration” (priority 2002, published 2003).

What all share (assay type): in vivo, rat
The test system of test [1] is rats with a moderate contusion injury at thoracic cord segment 8. Kind of test: Gridwalk test for fine locomotor performance after moderate contusion injury. The note with it: FIG. 4; 8 weeks after moderate contusion; 1 m gridwalk, maximum 20 errors. The source says: FIG. 4 compares footfall errors in a gridwalking analysis 8 weeks after a moderate contusion injury by weight drop (NYU impactor, 12.5 mm height) followed by db-cAMP administration plus Schwann cell transplantation with or without rolipram. Each treatment used 4 injection sites, 2-3 mm rostral and caudal to the injury site and on either side of the midline. A. Non-injured control; B. 1 week post-injury 2×10^6 Schwann cells injected into the injury site with saline; C. 1 week post-injury 2×10^6 Schwann cells injected with 4×0.2 μL×1 mM db-cAMP; D. 1 week post-injury 2×10^6 Schwann cells with 4×0.2 μL×50 mM db-cAMP; E. 1 day post-injury 2×10^6 Schwann cells with 4×0.2 μL×50 mM db-cAMP; F. animals received rolipram by minipump starting within 30 minutes of the injury (0.07 μmol/kg/hr for 2 weeks after injury) and 1 week later 2×10^6 Schwann cells with 4×0.2 μL×50 mM db-cAMP.
(§1) Adult rats (Fischer rats, Charles River Laboratories, 3-5 months old) were injured in the thoracic level of the spinal cord with the NYU weight drop device (NYU impactor) as described in Gruner (1992), and rolipram (0.07 μmol/kg/hr) was administered for two weeks. […]
The number of footfall errors that the animal makes is recorded (maximum is 20, 1 per leg per space between each bar) with higher scores indicating a poor ability to perform the tasks.

The test system is the same in test [2]. Put plainly: Footprint analysis after moderate contusion injury. The note with it: FIGS. 5-7; 8 weeks after moderate contusion; conditioned locomotion. How it is done:
FIG. 5 compares stride length in a footprint analysis conducted 8 weeks after a moderate contusion injury by weight drop followed by db-cAMP administration plus Schwann cell transplantation with or without rolipram. Each treatment used 4 injection sites, 2-3 mm rostral and caudal to the injury site and on either side of the midline. A. Non-injured control; B. 1 week post-injury 2×10^6 Schwann cells injected into the injury site with saline; C. […]
FIGS. 5, 6 and 7 illustrate the locomotor patterns of injured rats that received various treatments, tested by inking both the fore- and hind-paws (different colors), allowing them to walk 1 m on an enclosed, flat runway and then analyzing the footprints. Recorded parameters from 8 consecutive steps included the animal's stride length (measured between the central pads of two consecutive prints on each side of the animal), base of support (determined by measuring the distance between the central pads of the hindpaws), and hindfoot outward rotation. […]

The test system is the same in test [3]. Kind of test: BBB test of hindlimb locomotion after moderate contusion injury with Schwann cell injection. The note with it: FIG. 3, tested weekly. How it is done: FIG. 3 compares the effects over time of db-cAMP injection and rolipram on BBB scores of rats receiving Schwann cell transplantation after receiving moderate contusion injury to the spinal cord by weight drop (NYU impactor, 12.5 mm height). Each treatment used 4 injection sites, 2-3 mm rostral and caudal to the injury site and on either side of the midline. Diamonds: 2×10^6 Schwann cells were injected into the injury site with saline injection one week post-injury; squares: 2×10^6 Schwann cells with 0.2 μL×1 mM db-cAMP (four injections) one week postinjury; triangles: 2×10^6 Schwann cells with 0.2 μL×50 mM db-cAMP (four injections) one week post-injury; crosses: 2×10^6 Schwann cells with 0.2 μL×50 mM […] (four injections) one day post-injury; circles: animals received rolipram by minipump starting within 30 minutes of the injury (0.07 μmol/kg/hr for 2 weeks after injury) and 1 week later Schwann cells with 0.2 μL×50 mM db-cAMP (four injections).
as §1

The subject of test [4] is rats with a complete spinal cord transection at thoracic cord segment 8. Kind of test: BBB test of hindlimb locomotion after complete spinal cord transection with Schwann cell bridge. The settings on record: rolipram by minipump 0.07 μmol/kg/hr for two weeks, assessed weekly. The text has this: Schwann cells were purified in culture from adult rat sciatic nerve (according to the methods described by Morrissey, Kleitman and Bunge (1991)). The purity of the Schwann cells used for transplantation was between 95 and 98%.
For Schwann cell bridges, cells were suspended in matrigel/DMEM (30:70) and drawn into 3-8 mm long polymer guidance channels at a density of 120×10^6 cells/ml, as described by Xu et al. (1997). During implantation into adult rats (Fischer rats, Charles River Laboratories, 3-5 months old), each cut stump of the severed spinal cord was inserted 1 mm into the channel. Sometimes the Schwann cell cable is transplanted without the guidance channel. Either method, with or without the channel, is readily accomplished by persons who have performed this procedure a number of times and so have gained adequate expertise to accomplish this.
Spinal cords of adult rats were completely transected by surgery at the T8 cord level and the next caudal segment was removed. At the time of transection, a Schwann cell bridge was implanted at the injury site, 50 mM db-cAMP was injected (0.2 μl) or infused (5 μl) into the proximal and distal stump of the lesion and rolipram was delivered subcutaneously via minipump at 0.07 μmol/kg/hr for two weeks. […] Animals were assessed on a weekly basis for hindlimb locomotion, a measure of motor recovery, using the BBB test. […]

On to `CCCC(=O)Nc1ncnc2c1ncn2[C@@H]1O[C@@H]2COP(=O)(O)O[C@H]2[C@H]1OC(=O)CCC` [db-cAMP, dibutyryl-cAMP], for which, in test [1], the “ability to perform fine motor tasks (footfall errors on gridwalk)” value is “exhibited many more errors”. For the same compound, the “outward foot rotation in footprint analysis” value in test [2] is “did not exhibit a similar level of recovery”. Also, the “trunk stability (base of support) in footprint analysis” value in test [2] was “did not exhibit a similar level of recovery”. For the same compound, the “hindlimb locomotion (BBB test)” value in test [3] is on record as “not observed”; in test [4] (FIG. 1, db-cAMP injected (0.2 μl) into both stumps), “not observed”; in test [4] (FIG. 2, db-cAMP infused (5 μl) into both stumps), “not observed”.
